For this test, the target named is T1, Ba/F3 KIF5B-RET (Homo sapiens, UniProt P07949, cells depend on it, form not given).
T1 construct: IC50 (nM); other: Experiment 1; other: Experiment 2; fused on or other part: P33176 (Kinesin-1 heavy chain)
Briefly: Compound I anti-cell proliferation comparison (FIG. 5A, 5B). To be noted: for GI50: read-out: IC50 (the source's name). It counts as cell-based. An excerpt:
The KIF5B-RET gene was synthesized at GenScript and cloned into pCDH-CMV-MCS-EF1-Puro plasmid (System Biosciences, Inc). KIF5B-RET point mutation V804M and G810C were generated at GenScript by PCR and confirmed by sequencing. Ba/F3-KIF5B-RET wild type and mutant were generated by transducing Ba/F3 cells with lentivirus containing KIF5B-RET wide type or mutant. Stable cell lines were selected by puromycin treatment, followed by IL-3 withdrawal. Briefly, 5×10^6 Ba/F3 cells were transduced with lentivirus supernatant in the presence of 8 μg/mL protamine sulfate. The transduced cells were subsequently selected with 1 μg/mL puromycin in the presence of IL3-containing medium RPMI1640, plus 10% FBS. After 10-12 days of selection, the surviving cells were further selected for […] independent growth.
Two thousand cells per well were seeded in 384 well white plate for 24 hrs, and then treated with compounds for 72 hours (37° C., 5% CO2). Cell proliferation was measured using CellTiter-Glo luciferase-based ATP detection assay (Promega) following the manufactures's protocol. IC50 determinations were performed using GraphPad Prism software (GraphPad, Inc., San Diego, Calif.).

Like-named read-outs stand apart in the source and are kept apart here.

T1 sequence (P07949 whole entry G810C, form open, the tested form may be a part): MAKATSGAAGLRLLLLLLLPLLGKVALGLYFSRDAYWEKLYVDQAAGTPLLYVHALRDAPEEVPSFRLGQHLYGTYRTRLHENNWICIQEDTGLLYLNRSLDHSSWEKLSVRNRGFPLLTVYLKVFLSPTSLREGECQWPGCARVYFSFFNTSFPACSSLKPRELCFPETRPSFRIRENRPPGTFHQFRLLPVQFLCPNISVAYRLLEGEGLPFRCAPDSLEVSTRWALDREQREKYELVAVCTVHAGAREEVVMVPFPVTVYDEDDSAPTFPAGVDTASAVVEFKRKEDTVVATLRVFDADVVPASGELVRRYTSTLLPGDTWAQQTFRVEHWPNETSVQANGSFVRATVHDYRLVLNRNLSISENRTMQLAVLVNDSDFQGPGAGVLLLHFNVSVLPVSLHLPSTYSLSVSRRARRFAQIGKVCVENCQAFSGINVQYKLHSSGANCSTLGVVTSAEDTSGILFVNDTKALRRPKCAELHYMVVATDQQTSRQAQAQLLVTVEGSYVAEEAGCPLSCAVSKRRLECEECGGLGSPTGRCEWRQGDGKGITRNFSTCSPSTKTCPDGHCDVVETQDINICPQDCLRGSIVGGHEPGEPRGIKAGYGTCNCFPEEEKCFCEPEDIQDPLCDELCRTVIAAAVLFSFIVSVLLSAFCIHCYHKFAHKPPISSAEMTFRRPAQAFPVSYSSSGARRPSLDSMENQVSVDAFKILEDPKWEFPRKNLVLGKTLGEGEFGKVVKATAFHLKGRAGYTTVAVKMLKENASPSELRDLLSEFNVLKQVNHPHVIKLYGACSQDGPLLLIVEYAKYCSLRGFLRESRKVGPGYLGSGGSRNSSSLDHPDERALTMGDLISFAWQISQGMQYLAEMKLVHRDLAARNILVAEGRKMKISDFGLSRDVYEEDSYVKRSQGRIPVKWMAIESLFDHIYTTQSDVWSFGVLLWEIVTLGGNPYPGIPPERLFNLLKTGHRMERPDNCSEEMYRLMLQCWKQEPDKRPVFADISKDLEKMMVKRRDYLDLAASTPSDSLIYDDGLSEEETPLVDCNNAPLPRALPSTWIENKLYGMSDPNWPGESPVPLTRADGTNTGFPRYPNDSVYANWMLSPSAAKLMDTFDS

For orientation: IC75 means the concentration at which the effect reaches the 75% level. In general, IC90 refers to the point of the concentration-response curve where the effect stands at 90%. Read a high IC90 as a need for much substance. In the case of `CO[C@]1(C(=O)N[C@@H](C)c2ccc(-n3cc(F)cn3)nc2)CC[C@H](c2nc(C)cc(Nc3cc(C)[nH]n3)n2)CC1` [BLU-667], where the note is “Experiment 1”, the “IC75” value is reported as 115.4 nM, the IC90 came out at 720 nM and the GI50 came out at 18.5 nM. Moreover, for the setting “Experiment 2”, the “IC75” value stood at 214.3 nM, the IC90 amounted to 1030 nM and the GI50 came to 44.6 nM.

(Values after patent US20220411439A1, “POLYMORPHS OF A MACROCYCLIC KINASE INHIBITOR” (TURNING POINT THERAPEUTICS, INC., priority 2019, published 2022).)
